Consider 19 compounds from patent publication US10045968B2, “Bicyclic compound, production and use thereof” (TOBIRA THERAPEUTICS, INC., priority 2001, dated 2018).

T1 sequence (P51681 whole entry): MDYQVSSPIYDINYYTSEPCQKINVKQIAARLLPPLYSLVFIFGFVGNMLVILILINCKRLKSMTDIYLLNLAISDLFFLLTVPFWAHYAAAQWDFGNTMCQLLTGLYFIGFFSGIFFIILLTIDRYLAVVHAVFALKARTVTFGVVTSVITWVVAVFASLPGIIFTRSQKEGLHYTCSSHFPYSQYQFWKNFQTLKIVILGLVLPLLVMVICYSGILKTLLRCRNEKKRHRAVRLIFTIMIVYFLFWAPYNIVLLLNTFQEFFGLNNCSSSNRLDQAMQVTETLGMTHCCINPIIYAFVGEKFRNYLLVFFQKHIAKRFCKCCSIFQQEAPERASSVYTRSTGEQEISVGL

One test has as its target T1, human CCR5 (Homo sapiens, UniProt P51681).
T1 construct: expressed in transfected cells; host or cells: CHO-K1 cells, stably transfected with pCKR5 (pcDNA3.1 backbone), Geneticin-selected
The experiment in a line: Inhibition of [125I]-RANTES binding to CCR5/CHO cells (CCR5 antagonist activity). The conditions noted are these: 40 min, test compound 1 μM, 100 pM [125I]-RANTES as ligand, room temperature, read-out: Binding Inhibitory Ratio (%). Here is the method: (1) Cloning of Human CCR5 Chemokine Receptor Cloning of CCR5 gene was conducted from human spleen cDNA by PCR method. Using cDNA (0.5 ng) from spleen (Toyobo, QUICK-Clone cDNA) as a genetic template, primer sets prepared by referring to CCR5 gene nucleotide sequence described by Samson et al. (Biochemistry 35 (11), 3362-3367 (1996), i.e., (2) Preparation of Expression Plasmid of Human CCR5 […] The DNA fragments and an expression plasmid for animal cells pcDN A3.1 (Funakoshi), which was previously digested by XbaI and BamHI, were mixed and ligated by DNA Ligation Kit Ver. 2 (Takara Shuzo). Transformation of E. coli JM109 competent cells (Takara Shuzo) gave plasmid pCKR5. (3) Introduction of the Human CCR5 Expression Plasmid into CHO-K1 Cells and Expression Thereof […] The cells were washed with PBS (Lifetech Oriental), centrifuged (1000 rpm, 5 minutes), and resuspended in PBS. The DNA was introduced into the cells using Gene Pulser (BioRad) according to the following conditions. […] The cells were diluted to a concentration of 10^4 cells/ml, and inoculated in 96 well plate (Becton Dickinson), to obtain Geneticin-resistant cells. The Geneticin-resistant cells ware grown in 96 well plate (Becton Dickinson), and CCR5 expressing cells were selected from the resistant cells. Namely, in an assay buffer, (Ham F12 medium containing 0.5% BSA, and 20 mM HEPES (Wako Pure Chemical Ind., pH 7.2)), containing 200 pM [^125I]-RANTES (Amersham) as a ligand, the cells were subjected to binding reaction at room temperature for 40 minutes. The well plate containing the cells was washed with ice-cooled PBS, added with 1M NaOH in an amount of 50 μl/well and stirred. The cells to which the ligand bound specifically, i.e., CCR5/CHO cells, were selected by measurement of radioactivity by γ-counter. (4) Evaluation of Compounds Based on CCR5 Antagonist Activity The CCR5/CHO cells were inoculated in 96 well microplate at a concentration of 5×10^4 cells/well, and grown for 24 hours. After removal of the medium by aspiration, to each well was added an assay buffer containing a test compound (1 μM), and (^125I)/RANTES (Amersham) used as a ligand at a concentration of 100 pM. The mixture was subjected to the reaction at room temperature for 40 minutes. After removal of the assay buffer by aspiration, each well was washed with cooled PBS twice. Then, 200 μl MicroScint 20 (Packerd) was added to each well, and the radioactivity of each well was measured by TopCount (Packard). According to the method above, inhibitory ratios to CCR5 binding of the test compounds were determined.
For `CCCCOCCOc1ccc(-c2ccc3c(c2)C=C(C(=O)Nc2ccc([S+]([O-])Cc4nncn4CCC)cc2)CCCN3CC(C)C)cc1` (single isomer, unassigned; (+)) [Compound 48, (+)-8-[4-(2-butoxyethoxy)phenyl]-1-isobutyl-N-[4-[[(4-propyl-4H-1,2,4-triazol-3-yl)methyl]sulfinyl]phenyl]-1,2,3,4-tetrahydro-1-benzazocine-5-carboxamide], the inhibition at 1 µM worked out at 97%. Still for that read-out and setting: next, `CCCCOCCOc1ccc(-c2ccc3c(c2)C=C(C(=O)Nc2ccc([S+]([O-])Cc4cncn4CCC)cc2)CCCN3CCC)cc1` (single isomer, unassigned; (-)) [Compound 9, (−)-8-[4-(2-butoxyethoxy)phenyl]-1-propyl-N-[4-[[[1-propylimidazol-5-yl]methyl]sulfinyl]phenyl]-1,2,3,4-tetrahydro-1-benzoazocine-5-carboxamide]: 100%; `CCCCOCCOc1ccc(-c2ccc3c(c2)C=C(C(=O)Nc2ccc([S+]([O-])Cc4nccn4CCC)cc2)CCCN3CCC)cc1` (single isomer, unassigned; (-)) [Compound 22, (−)-8-[4-(2-butoxyethoxy)phenyl]-1-propyl-N-[4-[[[1-propylimidazol-2-yl]methyl]sulfinyl]phenyl]-1,2,3,4-tetrahydro-1-benzoazocine-5-carboxamide]: 98%; `CCCCOCCOc1ccc(-c2ccc3c(c2)C=C(C(=O)Nc2ccc([S+]([O-])Cc4cncn4CCC)cc2)CCCCN3CC(C)C)cc1` (single isomer, unassigned; (-)) [Compound 26, (−)-9-[4-(2-butoxyethoxy)phenyl]-1-isobutyl-N-[4-[[[1-propylimidazol-5-yl]methyl]sulfinyl]phenyl]-2,3,4,5-tetrahydro-1H-1-benzoazonin-6-carboxamide]: 100%. Same read-out and setting: in the case of `CCCCOCCOc1ccc(-c2ccc3c(c2)C=C(C(=O)Nc2ccc([S+]([O-])Cc4cncn4CCC)cc2)CCCN3Cc2cnn(C)c2)cc1` (single isomer, unassigned; (-)) [Compound 34, (−)-8-[4-(2-butoxyethoxy)phenyl]-1-((1-methylpyrazol-4-yl)methyl)-N-[4-[[[1-propylimidazol-5-yl]methyl]sulfinyl]phenyl]-1,2,3,4-tetrahydro-1-benzoazocine-5-carboxamide] it was 97%; in that of `CCCCOCCOc1ccc(-c2ccc3c(c2)C=C(C(=O)Nc2ccc(CN(C)C4CCOCC4)cc2)CCCO3)cc1` [Compound 1, 8-[4-(2-butoxyethoxy)phenyl]-N-[4-[[N-methyl-N-(tetrahydropyran-4-yl)amino]methyl]phenyl]-3,4-dihydro-2H-1-benzoxocin-5-carboxamide], 94%.

On to `CCCCOCCOc1ccc(-c2ccc3c(c2)C=C(C(=O)Nc2ccc(CN(C)C4CCOCC4)cc2)CCCN3CCC)cc1` [Compound 2, 8-[4-(2-butoxyethoxy)phenyl]-1-propyl-N-[4-[[N-methyl-N-(tetrahydropyran-4-yl)amino]methyl]phenyl]-1,2,3,4-tetrahydro-1-benzazocine-5-carboxamide], for which the inhibition at 1 µM is 96%.

In the case of `CCCCOCCOc1ccc(-c2ccc3c(c2)C=C(C(=O)Nc2ccc(SCc4cncn4CCC)cc2)CCCN3CCC)cc1` [Compound 3, 8-[4-(2-butoxyethoxy)phenyl]-1-propyl-N-[4-[[[1-propylimidazol-5-yl]methyl]sulfanyl]phenyl]-1,2,3,4-tetrahydro-1-benzazocine-5-carboxamide], the inhibition at 1 µM was 91%. For `CCCCOCCOc1ccc(-c2ccc3c(c2)C=C(C(=O)Nc2ccc(S(=O)(=O)Cc4cncn4CCC)cc2)CCCN3CCC)cc1` [Compound 5, 8-[4-(2-butoxyethoxy)phenyl]-1-propyl-N-[4-[[[1-propylimidazol-5-yl]methyl]sulfonyl]phenyl]-1,2,3,4-tetrahydro-1-benzazocine-5-carboxamide], the inhibition at 1 µM was 86%. The same measure, in the same setting: in the case of `CCCCOCCOc1ccc(-c2ccc3c(c2)C=C(C(=O)Nc2ccc([S+]([O-])Cc4cncn4CCC)cc2)CCCN3CC(C)C)cc1` (stereo not shown) [Compound 7, 8-[4-(2-butoxyethoxy)phenyl]-1-isobutyl-N-[4-[[[1-propyl-1H-imidazol-5-yl]methyl]sulfinyl]phenyl]-1,2,3,4-tetrahydro-1-benzazocine-5-carboxamide] it was 100%.

The same test, now with this note: test compound 1 μM, 100 pM [125I]-RANTES as ligand, room temperature, 40 minutes.
For `CCCCOCCOc1ccc(-c2ccc3c(c2)C=C(C(=O)Nc2ccc([S+]([O-])Cc4nncn4CCC)cc2)CCCN3CCC)cc1` (single isomer, unassigned; (+)) [Compound 53, (+)-8-[4-(2-butoxyethoxy)phenyl]-1-propyl-N-[4-[[(4-propyl-4H-1,2,4-triazol-3-yl)methyl]sulfinyl]phenyl]-1,2,3,4-tetrahydro-1-benzazocin-5-carboxamide], the “Binding Inhibitory Ratio (%)” value came out at 100%. In the case of `CCCCOCCOc1ccc(-c2ccc3c(c2)C=C(C(=O)Nc2ccc([S+]([O-])Cc4cncn4CCC)cc2)CCCN3CC(C)C)cc1.CS(=O)(=O)O` (single isomer, unassigned; (-)) [Compound 14, (−)-8-[4-(2-butoxyethoxy)phenyl]-1-isobutyl-N-[4-[[[1-propyl-1H-imidazol-5-yl]methyl]sulfinyl]phenyl]-1,2,3,4-tetrahydro-1-benzoazocine-5-carboxamide methanesulfonate], the “Binding Inhibitory Ratio (%)” value is 98%. Still for that read-out and setting: in the case of `C=C(C)CN1CCCC(C(=O)Nc2ccc([S+]([O-])Cc3cncn3CCC)cc2)=Cc2cc(-c3ccc(OCCOCCCC)cc3)ccc21` (single isomer, unassigned; (-)) [Compound 23, (−)-8-[4-(2-butoxyethoxy)phenyl]-1-(2-methyl-2-propen-1-yl)-N-[4-[[[1-propylimidazol-5-yl]methyl]sulfinyl]phenyl]-1,2,3,4-tetrahydro-1-benzoazocine-5-carboxylic] it was 97%; in that of `CCCCOCCOc1ccc(-c2ccc3c(c2)C=C(C(=O)Nc2ccc([S+]([O-])Cc4nncn4CCC)cc2)CCCN3CC(C)C)cc1` (single isomer, unassigned; (-)) [Compound 49, (−)-8-[4-(2-butoxyethoxy)phenyl]-1-isobutyl-N-[4-[[(4-propyl-4H-1,2,4-triazol-3-yl)methyl]sulfinyl]phenyl]-1,2,3,4-tetrahydro-1-benzazocine-5-carboxamide], 91%; in that of `CCCCOCCOc1ccc(-c2ccc3c(c2)C=C(C(=O)Nc2ccc([S+]([O-])Cc4nncn4CCC)cc2)CCCN3CCC)cc1` (single isomer, unassigned; (-)) [Compound 52, (−)-8-[4-(2-butoxyethoxy)phenyl]-1-propyl-N-[4-[[[4-propyl-4H-1,2,4-triazol-3-yl]methyl]sulfinyl]phenyl]-1,2,3,4-tetrahydro-1-benzazocine-5-carboxamide], 96%. `CCCCOCCOc1ccc(-c2ccc3c(c2)C=C(C(=O)Nc2ccc([S+]([O-])Cc4cncn4CCC)cc2)CCCN3CCC)cc1` (stereo not shown) [Compound 4, 8-[4-(2-butoxyethoxy)phenyl]-1-propyl-N-[4-[[[1-propylimidazol-5-yl]methyl]sulfinyl]phenyl]-1,2,3,4-tetrahydro-1-benzazocine-5-carboxamide]: the “Binding Inhibitory Ratio (%)” value was found to be 100%. The same measure, in the same setting: in the case of `CCCCOCCOc1ccc(-c2ccc3c(c2)C=C(C(=O)Nc2ccc(SCc4cncn4CCC)cc2)CCCN3CC(C)C)cc1` [Compound 6] it was 98%; in that of `CCCCOCCOc1ccc(-c2ccc3c(c2)C=C(C(=O)Nc2ccc(SCc4cncn4CCC)cc2)CCCN3CC(C)C)cc1` [Compound 8, 8-[4-(2-butoxyethoxy)phenyl]-I-isobutyl-N-[4-[[[1-propyl-1H-imidazol-5-yl]methyl]sulfanyl]phenyl]-1,2,3,4-tetrahydro-1-benzazocine-5-carboxamide], 99%; in that of `CCCCOCCOc1ccc(-c2ccc3c(c2)C=C(C(=O)Nc2ccc([S+]([O-])Cc4cncn4CCC)cc2)CCCN3CC(C)CO)cc1` (stereo not shown) [Compound 32, 8-[4-(2-butoxyethoxy)phenyl]-1-(2-methyl-3-hydroxy)propyl-N-[4-[[[1-propylimidazol-5-yl]methyl]sulfinyl]phenyl]-1,2,3,4-tetrahydro-1-benzoazocine-5-carboxamide], 100%.
